Assay results taken from US20240325394A1, “SALT AND CRYSTAL FORM OF NITROGEN-CONTAINING HETEROCYCLIC DERIVATIVE, PREPARATION METHOD THEREFOR AND APPLICATION THEREOF” (SHANGHAI HANSOH BIOMEDICAL CO., LTD., priority 2020, published 2024).

Tests used:
hERG potassium channel = target: T1, hERG potassium channel (Homo sapiens, UniProt Q12809); test: hERG potassium channel inhibitory activity test (Qpatch, CHO-hERG cells); assay type: cell-based; conditions: highest test concentration 40 μM, read-out: hERG (μM), inhibition at multiple concentrations on hERG current
T1 construct: expressed in transfected cells; host or cells: CHO-hERG cells
T1 sequence (Q12809 whole entry): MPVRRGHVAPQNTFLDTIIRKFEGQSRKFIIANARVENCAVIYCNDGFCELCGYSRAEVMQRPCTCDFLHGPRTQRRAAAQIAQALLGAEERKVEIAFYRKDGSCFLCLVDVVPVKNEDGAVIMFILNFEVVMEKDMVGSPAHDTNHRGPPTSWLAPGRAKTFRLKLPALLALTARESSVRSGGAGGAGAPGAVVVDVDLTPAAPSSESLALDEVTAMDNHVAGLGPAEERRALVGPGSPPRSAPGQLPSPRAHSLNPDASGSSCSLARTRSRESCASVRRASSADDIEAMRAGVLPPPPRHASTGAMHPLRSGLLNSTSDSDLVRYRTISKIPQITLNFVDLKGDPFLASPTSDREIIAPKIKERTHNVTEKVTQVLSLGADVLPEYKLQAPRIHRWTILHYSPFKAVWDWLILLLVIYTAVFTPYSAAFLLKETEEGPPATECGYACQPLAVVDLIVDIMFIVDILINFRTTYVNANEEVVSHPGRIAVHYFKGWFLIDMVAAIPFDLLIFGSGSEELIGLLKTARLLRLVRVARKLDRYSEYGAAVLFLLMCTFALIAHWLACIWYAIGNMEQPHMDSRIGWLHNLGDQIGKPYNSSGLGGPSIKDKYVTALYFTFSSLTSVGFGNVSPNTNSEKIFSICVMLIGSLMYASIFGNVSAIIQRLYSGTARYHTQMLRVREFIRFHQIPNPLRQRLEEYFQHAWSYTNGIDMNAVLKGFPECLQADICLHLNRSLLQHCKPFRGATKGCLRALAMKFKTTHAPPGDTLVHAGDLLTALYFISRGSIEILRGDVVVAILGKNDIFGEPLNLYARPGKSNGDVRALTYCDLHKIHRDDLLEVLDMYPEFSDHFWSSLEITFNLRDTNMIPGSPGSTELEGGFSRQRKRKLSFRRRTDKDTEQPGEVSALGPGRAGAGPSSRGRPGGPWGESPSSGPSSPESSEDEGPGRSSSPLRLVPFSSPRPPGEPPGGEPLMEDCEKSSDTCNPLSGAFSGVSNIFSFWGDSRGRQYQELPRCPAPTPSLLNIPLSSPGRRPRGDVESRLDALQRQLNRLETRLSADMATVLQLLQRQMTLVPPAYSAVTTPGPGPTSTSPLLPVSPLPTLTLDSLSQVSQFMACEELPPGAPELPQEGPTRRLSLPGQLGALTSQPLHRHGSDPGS
Procedure: 7.1.1 CHO-hERG cells were cultured in a 175 cm^2 flask, when the cell density reached 60-80%, the culture medium was removed, the cells were washed with 7 mL PBS, and then digested with 3 mL Detachin. 7.1.2 After complete digestion, 7 mL culture medium was added to neutralize, then the mixture was centrifuged, the supernatant was aspirated, and then 5 mL culture medium was added to re-suspend, ensuring 2-5×10^6/mL of cell density.
The process of single cell high impedance sealing and whole cell mode formation were all automatically completed by Qpatch instrument, after obtaining the whole cell recording mode, the cells were clamped at −80 mV, before giving a 5-second +40 mV depolarization stimulus, a 50 millisecond −50 mV prevoltage was given first, and then repolarized to −50 mV for 5 seconds, then returned to −80 mV. This voltage stimulation was applied every 15 seconds and recorded for 2 minutes before giving extracellular fluid recordings for 5 minutes, and then the administration process was started, the compound concentration was given from the lowest test concentration, each test concentration was given for 2.5 minutes, and the positive control compound 3 μM of Cisapride was given after all concentrations were continuously given. At least 3 cells (n≥3) were tested at each concentration.
7.4.1 20 mM of compound mother liquor was diluted with extracellular fluid, 5 μL of 20 mM compound mother liquor was added into 2495 μL of extracellular fluid and diluted 500-fold to 40 μM, and then the final concentration to be tested was obtained by sequential 3-fold serial dilutions in extracellular solution containing 0.2% DMSO. 7.4.2 The highest test concentration was 40 μM, in a total of 6 concentrations of 40, 13.33, 4.44, 1.48, 0.49 and 0.16 μM respectively. 7.4.3 The content of DMSO in the final test concentration was not more than 0.2%, and this concentration of DMSO had no effect on hERG potassium channel.
The experimental data were analyzed by XLFit software. […]

[1] = Plasma protein binding rate test, human plasma; assay type: in vitro ADME; conditions: 37° C.
Procedure: (§1) The embodiment compound was prepared into a 1 mM solution A with DMSO.
(§2) Solution A was added to the plasma solution and prepared into a 5 μM solution B.
(§3) • 1) 200 μL of solution B was added into the membrane. • 2) 350 μL of PBS was added to the outside of the membrane. • 3) Incubating in a 37° C. water bath for 6 hours. • 4) The samples were processed for dilution and detected by mass spectrometry.
(§4) • instrument: Shimadzu LC-20 AD; • chromatographic column: phenomenex Gemiu® C18 (50*4.6 mm, 5 UM particle size); • mobile phase: A: Acetonitrile, B: 0.1% formic acid solution 0-0.5 min: 5% A→90% A, 2.0-2.1 min: 90% A→5% A; flow rate: 0.8 mL/min; running time: 5.0 min; injection volume: 5 μL.
(§5) • instrument: API4000 Liquid Chromatography-Mass Spectrometry, AB, USA; • the ion source was electrospray ionization source (ESI); • the temperature of dry gas (N2) was 500° C.; • electrospray voltage was 5500V; • the detection method was positive ion detection; • the scanning mode was selective response monitoring (MRM); the scanning time was 0.1 s.

[2] = Pharmacokinetics in MiaPaca 2 tumor-bearing mice (plasma, tumor tissue); assay type: in vivo; conditions: female, mouse, po; Plasma, p.o. 6 mg/kg
Procedure: The pharmacokinetic behavior of the compound of the embodiment 13-1 and AMG-510 compound, administered orally at a dose of 6 mg/kg, in mice (plasma, tumor tissue and intestine) was studied using MiaPaca 2 tumor-bearing mice as test animals.
24 MiaPaca 2 tumor-bearing mice, females. 3 for each time point (0 h, 1 h, 2 h, 4 h, 6 h, 8 h, 16 h, 24 h). Shanghai xipuer-bikai Laboratory Animal Co., Ltd, Animal Production License No. (SCXK (Shanghai) 2018-0006.
Embodiment compound 13-1 and compound AMG-510 were weighed and dissolved in the solution, the mixture was shaken well, and ultrasound was performed for 15 minutes to obtain a uniform suspension with a concentration of 0.6 mg/mL.
MiaPaca 2 tumor-bearing mice were administered at a dose of 6 mg/kg in a volume of 10 mL/kg, respectively, based on body weight p.o. after fasting (animals were not administered at point 0 h).
Before and after administration, mice were sacrificed with CO2, 0.5 mL blood was collected from the heart and placed in EDTA-2K tube, centrifuged at 4° C. […] The duodenum, ileum and colon tissues were cut with scissors, the contents were removed and cleaned twice with PBS, after absorbing water with absorbent paper, they were weighed, placed in a 2 mL centrifuge tube and stored at −80° C.

[3] = tested on: NCI-H358 cells (KRAS G12C mutant); test: Inhibition of NCI-H358 cell proliferation (CellTiter-Glo, 72 h); assay type: cell-based, human
Procedure: (§6) When NCI-H358 or Mia PaCa-2 cells were cultured to the appropriate fusion level, the NCI-H358 or Mia PaCa-2 cells were collected, and the cells were adjusted to the appropriate cell concentration using a complete medium, and the cell suspension was spread in a 96-well plate, 90 μL per well, and placed in a 37° C., 5% CO2 incubator overnight; and compound solutions of different concentrations were prepared using DMSO and culture medium; and a solvent control was set, the compound solution was added to a 96-well plate, 10 μL per well, at 37° C. in a 5% CO2 incubator for 72 hours; CellTiter-Glo solution was added thereto and the mixture was mixed well by shaking, incubated for 10 min in the dark, and read by BioTek Synergy H1 microplate reader.
(§7) The luminescence signal values were used to calculate the inhibition rate, the concentration and the inhibition rate were fitted to a nonlinear regression curve using Graphpad Prism software, then the IC50 value was obtained.

[4] = tested on: Mia PaCa-2 cells (KRAS G12C mutant); test: Inhibition of Mia PaCa-2 cell proliferation (CellTiter-Glo, 72 h); assay type: cell-based, human
Procedure: as §6, §7

plasma protein [5] = test: Plasma protein binding rate test, human plasma; assay type: in vitro ADME; conditions: 5 μM, 37° C., 6 hours
Procedure: as §1, §2, §3, §4, §5

plasma protein [6] = test: Plasma protein binding rate test, rat plasma; assay type: in vitro ADME; conditions: 5 μM, 37° C., 6 hours
Procedure: as §1, §2, §3, §4, §5

plasma protein [7] = test: Plasma protein binding rate test, mouse plasma; assay type: in vitro ADME; conditions: 5 μM, 37° C., 6 hours
Procedure: as §1, §2, §3, §4, §5

plasma protein [8] = test: Plasma protein binding rate test, dog plasma; assay type: in vitro ADME; conditions: 5 μM, 37° C., 6 hours
Procedure: as §1, §2, §3, §4, §5

Q: What does the source list for `C=CC(=O)N1C[C@H](C)N(c2nc(=O)n(-c3c(SC)ccnc3C(C)C)c3nc(-c4c(N)ccc(Cl)c4F)c(Cl)cc23)C[C@H]1C` (atropisomer, axis not shown) [Embodiment 13-1, P-4-((2S,5R)-4-Acryloyl-2,5-dimethylpiperazin-1-yl)-7-(6-amino-3-chloro-2-fluorophenyl)-6-chloro-1-(2-isopropyl-4-(methylthio)pyridin-3-yl)pyrido[2,3-d]pyrimidin-2(1H)-one]?
A: IC50 (hERG potassium channel): > 30 µM; fraction unbound at 6 h, 5 μM [1]: 0.003; MRT [2]: 54 min; half-life [2]: 30 min

Q: For “P-4-((2S,5R)-4-acryloyl-2,5-dimethylpiperazin-1-yl)-6-fluoro-7-(2-fluoro-6-hydroxyphenyl)-1-(2-isopropyl-4-(methylthio)pyridin-3-yl)pyrido[2,3-d]pyrimidin-2(1H)-one [Embodiment 2-1]”, which IC50 [3] is on record?
A: Its IC50 is 35 nM.

Q: What about the IC50 [4] of the same molecule?
A: Its IC50 is 29 nM.

Q: And the IC50 (hERG potassium channel)?
A: The IC50 was over 30 µM.

Q: And the “Plasma protein binding rate, Human” value (plasma protein [5])?
A: The value was 98.0.

Q: What about the “Plasma protein binding rate, Rat” value (plasma protein [6]) of the same molecule?
A: The value was 90.5.

Q: What about the “Plasma protein binding rate, Mouse” value (plasma protein [7]) of the same molecule?
A: Its value is 88.4.

Q: What about the “Plasma protein binding rate, Dog” value (plasma protein [8]) of the same molecule?
A: Its value is 82.6.
